Among the data in patent publication US20110160196A1, “FACTOR XA INHIBITORS” (Millennium Pharmaceuticals, Inc., priority 2007, published 2011) are IC50 values, retold here.

As a reminder, the IC50 is the concentration that gives 50% inhibition.

T1 sequence (P00742 235-488 limits assumed): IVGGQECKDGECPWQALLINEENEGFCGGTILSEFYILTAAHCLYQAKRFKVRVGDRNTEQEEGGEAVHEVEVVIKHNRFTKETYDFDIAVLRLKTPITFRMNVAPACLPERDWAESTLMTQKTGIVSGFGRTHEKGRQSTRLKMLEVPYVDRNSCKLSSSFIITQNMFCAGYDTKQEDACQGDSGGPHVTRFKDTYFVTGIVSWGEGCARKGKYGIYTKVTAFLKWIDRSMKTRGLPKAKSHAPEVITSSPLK
T1 sequence (P00742 41-179 partner limits assumed): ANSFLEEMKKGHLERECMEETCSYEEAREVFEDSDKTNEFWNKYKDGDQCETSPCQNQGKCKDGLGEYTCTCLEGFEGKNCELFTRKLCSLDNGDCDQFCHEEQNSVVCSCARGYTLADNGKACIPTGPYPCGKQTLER

The test has as its target T1, human plasma protein factor Xa (Homo sapiens, UniProt P00742).
T1 construct: The human plasma protein factor Xa was purchased; purchased Haematologic Technologies (Essex Junction, Vt.); host or cells: human plasma
The test can be described thus: Factor Xa IC50 determination (cleavage of paranitroanilide substrate S-2765). The test is classed as biochemical. Conditions: factor Xa 1 nM, S-2765 100 μM, Tris buffered saline pH 7.4, read at 405 nm. In outline: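 Human plasma factor Xa (1 nM) preincubated 5 min at room temperature with inhibitor (0.01 nM–10 μM) in Tris-buffered saline pH 7.4 with 5 mM CaCl2, 0.1% BSA, 5% DMSO. S-2765 added at 100 μM final; pNA release followed at 405 nm for 2 min. IC50 from four-parameter fit of initial velocities.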
As for `O=C(NCc1cn(-c2ccc(-n3ccccc3=O)cc2OC[C@@H](O)CO)nn1)c1ccc(Cl)s1` [Compound 79, 5-Chloro-N-((1-(2-((S)-2,3-dihydroxypropoxy)-4-(2-oxopyridin-1(2H)-yl)phenyl)-1H-1,2,3-triazol-4-yl)methyl)thiophene-2-carboxamide], the IC50 was not above 0.1 µM. As for `O=C(NCc1nnn(-c2ccc(-n3ccccc3=O)cc2OC[C@@H](O)CO)c1I)c1ccc(Cl)s1` [Compound 155, 5-Chloro-N-((1-(2-((S)-2,3-dihydroxypropoxy)-4-(2-oxopyridin-1(2H)-yl)phenyl)-5-iodo-1H-1,2,3-triazol-4-yl)methyl)thiophene-2-carboxamide], the figure is not above 0.1 µM; as for `O=C(O)COc1cc(-n2ccccc2=O)ccc1-n1cc(CNC(=O)c2ccc(Cl)s2)nn1` [Compound 96, 2-(2-(4-((2-Chlorothiophene-5-carboxamido)methyl)-1H-1,2,3-triazol-1-yl)-5-(2-oxopyridin-1(2H)-yl)phenoxy)acetic acid], 0.1 to 0.5 µM; as for `NC(=O)CCNC(=O)c1cc(-n2ccccc2=O)ccc1-n1cc(CNC(=O)c2ccc(Cl)s2)nn1` [Compound 147, N-((1-(2-(3-Amino-3-oxopropylcarbamoyl)-4-(2-oxopyridin-1(2H)-yl)phenyl)-1H-1,2,3-triazol-4-yl)methyl)-5-chlorothiophene-2-carboxamide], 0.1 to 0.5 µM. The compound `CS(=O)(=O)CCOc1cc(-n2ccccc2=O)ccc1-n1cc(CNC(=O)c2ccc(Cl)s2)nn1` [Compound 80, 5-Chloro-N-((1-(2-(2-(methylsulfonyl)ethoxy)-4-(2-oxopyridin-1(2H)-yl)phenyl)-1H-1,2,3-triazol-4-yl)methyl)thiophene-2-carboxamide] had an IC50 not above 0.1 µM. In turn, `O=C(NCc1cn(-c2ccc(-n3ccccc3=O)cc2OCc2ncc[nH]2)nn1)c1ccc(Cl)s1` [Compound 177, N-((1-(2-((1H-Imidazol-2-yl)methoxy)-4-(2-oxopyridin-1(2H)-yl)phenyl)-1H-1,2,3-triazol-4-yl)methyl)-5-chlorothiophene-2-carboxamide] displayed an IC50 not above 0.1 µM.

Compound `COCCN(C)c1cc(-n2ccccc2=O)ccc1-n1cc(CNC(=O)c2ccc(Cl)s2)nn1` [Compound 29, 5-Chloro-N-((1-(2-((2-mcthoxyethyl)(methyl)amino)-4-(2-oxopyridin-1(2H)-yl)phenyl)-1H-1,2,3-triazol-4-yl)methyl)thiophene-2-carboxamide] gave an IC50 not above 0.1 µM. In turn, `O=C(NCc1cn(-c2ccc(-n3ccccc3=O)cc2N2CCCC2)nn1)c1ccc(Cl)s1` [Compound 3, 5-Chloro-N-((1-(4-(2-oxopyridin-1(2H)-yl)-2-(pyrrolidin-1-yl)phenyl)-1H-1,2,3-triazol-4-yl)methyl)thiophene-2-carboxamide] displayed an IC50 not above 0.1 µM. Turning to `CNc1cc(-c2cc(-n3ccccc3=O)ccc2-n2cc(CNC(=O)c3ccc(Cl)s3)nn2)ccn1` [Compound 141, 5-Chloro-N-((1-(2-(2-(methylamino)pyridin-4-yl)-4-(2-oxopyridin-1(2H)-yl)phenyl)-1H-1,2,3-triazol-4-yl)methyl)thiophene-2-carboxamide], the IC50 is not above 0.1 µM. `NC(=O)N1CCN(c2cc(-n3ccccc3=O)ccc2-n2cc(CNC(=O)c3ccc(Cl)s3)nn2)CC1` [Compound 15, 4-(2-(4-((2-Chlorothiophene-5-carboxamido)methyl)-1H-1,2,3-triazol-1-yl)-5-(2-oxopyridin-1(2H)-yl)phenyl)piperazine-1-carboxamide] displayed an IC50 not above 0.1 µM.

In turn, `O=C(NCc1cn(-c2ccc(-n3ccccc3=O)cc2CO)nn1)c1ccc(Cl)s1` [Compound 119, 5-Chloro-N-((1-(2-(hydroxymethyl)-4-(2-oxopyridin-1(2H)-yl)phenyl)-1H-1,2,3-triazol-4-yl)methyl)thiophene-2-carboxamide] had an IC50 not above 0.1 µM. `O=C(NCc1cn(-c2ccc(-n3ccccc3=O)cc2OCCc2ccccn2)nn1)c1ccc(Cl)s1` [Compound 168, 5-Chloro-N-((1-(4-(2-oxopyridin-1(2H)-yl)-2-(2-(pyridin-2-yl)ethoxy)phenyl)-1H-1,2,3-triazol-4-yl)methyl)thiophene-2-carboxamide]: the IC50 is not above 0.1 µM.

As for `O=C(NCc1cn(-c2ccc(-n3ccccc3=O)cc2OCc2nc3ccccc3[nH]2)nn1)c1ccc(Cl)s1` [Compound 173, N-((1-(2-((1H-Benzo[d]imidazol-2-yl)methoxy)-4-(2-oxopyridin-1(2H)-yl)phenyl)-1H-1,2,3-triazol-4-yl)methyl)-5-chlorothiophene-2-carboxamide], the IC50 is not above 0.1 µM. `CSc1cc(-n2ccccc2=O)ccc1-n1cc(CNC(=O)c2ccc(Cl)s2)nn1` [Compound 50, 5-Chloro-N-((1-(2-(methylthio)-4-(2-oxopyridin-1(2H)-yl)phenyl)-1H-1,2,3-triazol-4-yl)methyl)thiophene-2-carboxamide] showed an IC50 not above 0.1 µM.

On to `CCOc1cc(-n2ccccc2=O)ccc1-n1cc(CNC(=O)c2ccc(Cl)s2)nn1` [Compound 164, 5-Chloro-N-((1-(2-ethoxy-4-(2-oxopyridin-1(2H)-yl)phenyl)-1H-1,2,3-triazol-4-yl)methyl)thiophene-2-carboxamide], for which the IC50 is not above 0.1 µM. In turn, `O=C(NCc1cn(-c2ccc(-n3ccccc3=O)cc2N2CCC(C(=O)O)CC2)nn1)c1ccc(Cl)s1` [Compound 24, 1-(2-(4-((2-Chlorothiophene-5-carboxamido)methyl)-1H-1,2,3-triazol-1-yl)-5-(2-oxopyridin-1(2H)-yl)phenyl)piperidine-4-carboxylic acid] displayed a half-maximal inhibitory concentration (IC50) not above 0.1 µM. To `NC(=O)NC1CCN(c2cc(-n3ccccc3=O)ccc2-n2cc(CNC(=O)c3ccc(Cl)s3)nn2)CC1` [Compound 20, 1-(1-(2-(4-((2-Chlorothiophene-5-carboxamido)methyl)-1H-1,2,3-triazol-1-yl)-5-(2-oxopyridin-l(2H)-yl)phenyl)piperidin-4-yl)urea] belongs not above 0.1 µM; to `O=C(NCc1cn(-c2ccc(-n3ccccc3=O)cc2OCCCN2CCCC2)nn1)c1ccc(Cl)s1` [Compound 93, 5-Chloro-N-((1-(4-(2-oxopyridin-1(2H)-yl)-2-(3-(pyrrolidin-1-yl)propoxy)phenyl)-1H-1,2,3-triazol-4-yl)methyl)thiophene-2-carboxamide], not above 0.1 µM. The compound `O=C(NCc1cn(-c2ccc(-n3ccccc3=O)cc2C(=O)O)nn1)c1ccc(Cl)s1` [Compound 100, 2-(4-((2-Chlorothiophcne-5-carboxamido)methyl)-1H-1,2,3-triazol-1-yl)-5-(2-oxopyridin-1(2H)-yl)benzoic acid] yielded an IC50 of 0.1 to 0.5 µM.

Compound `NC(=O)C1CCN(C(=O)c2cc(-n3ccccc3=O)ccc2-n2cc(CNC(=O)c3ccc(Cl)s3)nn2)CC1` [Compound 116, 1-(2-(4-((5-Chlorothiophene-2-carboxamido)methyl)-1H-1,2,3-triazol-1-yl)-5-(2-oxopyridin-1(2H)-yl)benzoyl)piperidine-4-carboxamide] registered an IC50 of 0.1 to 0.5 µM. As for `O=C(NCc1cn(-c2ccc(-n3ccccc3=O)cc2OCCn2cccc2)nn1)c1ccc(Cl)s1` [Compound 180, N-((1-(2-(2-(1H-Pyrrol-1-yl)ethoxy)-4-(2-oxopyridin-1(2H)-yl)phenyl)-1H-1,2,3-triazol-4-yl)methyl)-5-chlorothiophene-2-carboxamide], the figure is not above 0.1 µM; as for `NCCCNC(=O)c1cc(-n2ccccc2=O)ccc1-n1cc(CNC(=O)c2ccc(Cl)s2)nn1` [Compound 112, N-((1-(2-(3-aminopropylcarbamoyl)-4-(2-oxopyridin-1(2H)-yl)phenyl)-1H-1,2,3-triazol-4-yl)methyl)-5-chlorothiophene-2-carboxamide], 0.1 to 0.5 µM; as for `CNc1cc(-n2ccccc2=O)ccc1-n1cc(CNC(=O)c2ccc(Cl)s2)nn1` [Compound 1, 5-Chloro-N-((1-(2-(methylamino)-4-(2-oxopyridin-1(2H)-yl)phenyl)-1H-1,2,3-triazol-4-yl)methyl)thiophene-2-carboxamide], not above 0.1 µM.

The compound `O=C(NCc1cn(-c2ccc(-n3ccccc3=O)cc2-c2ccc(O)nc2)nn1)c1ccc(Cl)s1` [Compound 142, 5-Chloro-N-((1-(2-(6-hydroxypyridin-3-yl)-4-(2-oxopyridin-1(2H)-yl)phenyl)-1H-1,2,3-triazol-4-yl)methyl)thiophene-2-carboxamide] displayed an IC50 not above 0.1 µM.

In turn, `CC(=O)NC1CCN(c2cc(-n3ccccc3=O)ccc2-n2cc(CNC(=O)c3ccc(Cl)s3)nn2)CC1` [Compound 18, N-((1-(2-(4-Acetamidopiperidin-1-yl)-4-(2-oxopyridin-1(2H)-yl)phenyl)-1H-1,2,3-triazol-4-yl)methyl)-5-chlorothiophene-2-carboxamide] yielded an IC50 not above 0.1 µM.
